Assay results taken from US20250186410A1, “DUAL INHIBITORS OF TRYPTOPHAN DIOXYGENASES (IDO1 AND TDO) AND THEIR USE IN THERAPY” (ANTIDO THERAPEUTICS INTERNATIONAL SÀRL, priority 2022, published 2025).

Columns and labels:
[1] = test system: immune cells in LLC tumors; assay: Flow cytometry immune cell analysis, LLC tumors; assay type: in vivo, mouse; conditions: AT-0174 170 mg/kg, epacadostat 200 mg/kg P.O. daily
Description: (§1) LLC or LLC-CR (1×10^6) cells were subcutaneously injected into the flank of C57B6/J male and female mice (5 mice per group, age 6-8 weeks, Jackson laboratory) and allowed to grow for 3 days (average tumor size=50 mm^3) before being treated with the selective IDO1 inhibitor epacadostat at 200 mg/kg daily or with AT-0174 at 170 mg/kg daily (a dual inhibitor of IDO1 and TDO enzymes). Both compounds were administered via oral gavage (P.O.) and diluted with 95% water+5% methylcellulose (0.5%) and stored at −20° C. Compound was prepared every 5 days. Methyl cellulose (95+5%) was used as control (“Veh”). Tumor growth was evaluated every 2 days by measuring tumor volume with calipers according to the following formula: tumor volume=width^2×length×0.5. At the end of the study, mice were sacrificed and the blood, tumor, and lymph nodes were collected and processed for KYN and tryptophan (TRP) measurement and immune cell assessment respectively.
(§2) Tumors or lymph nodes were collected from mice and homogenized using syringe plungers. Mesh filters (40 μM) were placed on 15 mL or 50 mL tubes and the tissue suspensions were filtered. Cell filtrates were spun down at 1000 g. Red blood cell lysis buffer (1% […]) was added into the cell pellets and resuspended. Cell pellets were washed using PBS and isolated. Tumors were isolated using EasySep™ Mouse TIL (CD45) Positive Selection Kit (Stemcell Technologies). To detect regulatory T cells (T-regs) or natural killer cells (NKs), EasySep™ Mouse CD25 Regulatory T Cell Positive Selection Kit and EasySep™ Mouse CD49b Positive Selection Kit were used, respectively. Isolated cells were stained according to manufacturer's instructions. Cells were also fixed with 2% paraformaldehyde and analysis was done using the CytoFLEX Flow Cytometer (Beckman). All flow antibodies were obtained from Biolegend.

[2] = test system: immune cells in LLC-CR tumors; assay: Flow cytometry immune cell analysis, LLC-CR tumors; assay type: in vivo, mouse; conditions: AT-0174 170 mg/kg, epacadostat 200 mg/kg P.O. daily
Description: as §1, §2

[3] = test system: kynurenine (KYN) and tryptophan (TRP) levels in mouse serum; assay: KYN and TRP measurements, LLC-CR-bearing mice; assay type: in vivo; conditions: AT-0174 170 mg/kg, epacadostat 200 mg/kg P.O. daily
Description: as §1
(§3) Blood samples were collected via cardiac puncture from mice at the time of sacrifice and the Biochrom 30 amino acid analyzer (using ion exchange chromatography) was used to analyze free amino acids in samples. Briefly, 200 μL of serum extract and equal volume of 30% v/v deproteinization agent (sulfosalicylic acid) were mixed and vortexed for 10 s. Samples were then incubated at 55° C. for 20 min, spin down at 2500 g for 20 min at 4° C. Supernatant were collected, filtered through a 0.22 μm filter, and injected into the Biochrom 30. Values were reported compared to normal ranges in controls. Samples used in ion exchange chromatography are separated in an analytical fashion with an ion exchange column and buffers of increasing pH and ionic strength. After post-column derivatization with Ninhydrin, and colorimetric intensity recordings at 570 nm and 440 nm, the amino acids separated by chromatography were detected. Amino acid concentration was calculated by comparing the peak area of a particular amino acid to the peak area of an internal standard-AEC of known concentration, and then multiplying by its specific response factor from calibration.

[4] = test system: LLC (cisplatin-sensitive cell tumours); assay: Tumor growth in syngeneic mouse model, LLC allografts; assay type: in vivo; conditions: epacadostat 200 mg/kg P.O. daily
Description: as §1
In this example, LLC-CR from the Lewis lung mouse cell line (LLC; see methods) was used to determine, in vivo, the effect of IDO1 or dual IDO1/TDO inhibition on tumor growth. Mice were inoculated with either LLC or LLC-CR and treated with epacadostat (200 mg/kg P.O. 1/day) or AT-0174 (170 mg/kg P.O. 1/day).

[5] = test system: LLC-CR (cisplatin-resistant cell tumours); assay: Tumor growth in syngeneic mouse model, LLC-CR allografts; assay type: in vivo; conditions: for tumor volume, Mean: LLC-CR tumours, AT-0174 170 mg/kg, epacadostat 200 mg/kg P.O. daily
Description: Cisplatin resistant mouse cell lines (LLC-CR) were derived from LLC (mouse Lewis lung cancer cells (epidermoid carcinoma), ATCC) through treatment with increasing doses of cisplatin intermittently. LLC-CR clones were maintained in half GI50 dosage concentration. […] The cultures were observed daily and allowed to grow until they reached an initial cell density. […] After the cells recovered from cisplatin toxicity, they were treated again with increasing dosage of cisplatin for 24 h. These cells are seeded at 500-1000 cells per dish and cultured for 5-7 days. Clones are selected and expanded as well as tested for cisplatin sensitivity. Similar processes of exposure are carried out for a third and fourth time to generate higher resistant clones. At the end, the resistance clones (LLC-CR) were maintained in media completed with 1 μg/ml (half GI50 dosage) of cisplatin. […] Both compounds were administered via oral gavage (P.O.) and diluted with 95% water+5% methylcellulose (0.5%) and stored at −20° C. Compound was prepared every 5 days. Methyl cellulose (95+5%) was used as control (“Veh”). […] At the end of the study, mice were sacrificed and the blood, tumor, and lymph nodes were collected and processed for KYN and tryptophan (TRP) measurement and immune cell assessment respectively. In this example, LLC-CR from the Lewis lung mouse cell line (LLC; see methods) was used to determine, in vivo, the effect of IDO1 or dual IDO1/TDO inhibition on tumor growth. Mice were inoculated with either LLC or LLC-CR and treated with epacadostat (200 mg/kg P.O. 1/day) or AT-0174 (170 mg/kg P.O. 1/day).

[6] = test system: kynurenine (KYN) and tryptophan (TRP) levels in mouse serum; assay: KYN and TRP measurements, LLC-bearing mice; assay type: in vivo; conditions: AT-0174 170 mg/kg, epacadostat 200 mg/kg P.O. daily
Description: as §1, §3

With NS(=O)(=O)NCCNc1nonc1C(=NO)Nc1ccc(F)c(Br)c1 [Epacadostat, epacadostat, reference compound] the “CD3^+ CD8^+ T-Effector” value [1] was 5.16 ± 0.65, the “CD3^+ CD49^+ NKG2D^+ NK Cells” value [1] was 2.66 ± 0.57 and the “CD4^+ CD25^+ FoxP3^+ T-regs” value [1] was 13.27 ± 0.83. For the same compound, the “CD3^+ CD8^+ T-Effector” value [2] was 4.06 ± 0.63, the “CD3^+ CD49^+ NKG2D^+ NK Cells” value [2] was 2.38 ± 0.42 and the “CD4^+ CD25^+ FoxP3^+ T-regs” value [2] was 12.60 ± 0.94. For the same compound, the “KYN/TRP Ratio” value [3] was 2.01 ± 0.32, the Kynurenine [3] was 81.8 ± 11.9 and the Tyrptophan [3] was 43 ± 5.8. For the same compound, the “tumor volume, Mean” value ([4]; day 1, AT-0174 170 mg/kg) was 47.0 mm^3, the “tumor volume, Mean” value ([4]; day 2, AT-0174 170 mg/kg) was 108.0 mm^3 and the “tumor volume, Mean” value ([4]; day 3, AT-0174 170 mg/kg) was 110.0 mm^3. For the same compound, the “tumor volume, Mean” value ([4]; day 4, AT-0174 170 mg/kg) was 124.0 mm^3, the “tumor volume, Mean” value ([4]; day 5, AT-0174 170 mg/kg) was 137.0 mm^3 and the “tumor volume, Mean” value ([4]; day 6, AT-0174 170 mg/kg) was 151.0 mm^3. For the same compound, the “tumor volume, Mean” value ([4]; day 7, AT-0174 170 mg/kg) was 208.0 mm^3, the “tumor volume, Mean” value ([4]; day 8, AT-0174 170 mg/kg) was 290.0 mm^3 and the “tumor volume, Mean” value ([4]; day 9, AT-0174 170 mg/kg) was 325.0 mm^3. The “tumor volume, Mean” value ([4]; day 10, AT-0174 170 mg/kg) was 409.0 mm^3, the “tumor volume, Mean” value ([4]; day 11, AT-0174 170 mg/kg) was 563.0 mm^3 and the “tumor volume, Mean” value ([4]; day 12, AT-0174 170 mg/kg) was 625.0 mm^3. The “tumor volume, Mean” value ([4]; day 13, AT-0174 170 mg/kg) was 725.0 mm^3, the “tumor volume, Mean” value ([4]; day 14, AT-0174 170 mg/kg) was 785.0 mm^3 and the “tumor volume, Mean” value ([4]; day 15, AT-0174 170 mg/kg) was 910.0 mm^3. For the same compound, the “tumor weight” value ([5]; LLC-CR allograft mice, FIG. 2C) was “reduction of the total tumor weight”, the “tumor volume, Mean” value ([5]; day 1) was 57.0 mm^3 and the “tumor volume, Mean” value ([5]; day 2) was 89.0 mm^3. For the same compound, the “tumor volume, Mean” value ([5]; day 3) was 96.0 mm^3, the “tumor volume, Mean” value ([5]; day 4) was 126.0 mm^3 and the “tumor volume, Mean” value ([5]; day 5) was 137.0 mm^3. For the same compound, the “tumor volume, Mean” value ([5]; day 6) was 158.0 mm^3, the “tumor volume, Mean” value ([5]; day 7) was 212.0 mm^3 and the “tumor volume, Mean” value ([5]; day 8) was 291.0 mm^3. The “tumor volume, Mean” value ([5]; day 9) was 340.0 mm^3, the “tumor volume, Mean” value ([5]; day 10) was 390.0 mm^3 and the “tumor volume, Mean” value ([5]; day 11) was 430.0 mm^3. The “tumor volume, Mean” value ([5]; day 12) was 490.0 mm^3, the “tumor volume, Mean” value ([5]; day 13) was 511.0 mm^3 and the “tumor volume, Mean” value ([5]; day 15) was 565.0 mm^3. For the same compound, the “Tumor growth” value ([5]; cisplatin-resistant tumor group, FIG. 2B) was “significantly reduced”, the “KYN/TRP Ratio” value [6] was 1.35 ± 0.23 and the Kynurenine [6] was 74.6 ± 7.7. For the same compound, the Tyrptophan [6] was 58.6 ± 5.6.
